Laboratory results published in ChEMBL document CHEMBL5131570, “Discovery of Potent Small-Molecule USP8 Inhibitors for the Treatment of Breast Cancer through Regulating ERα Expression” (J Med Chem, 2022).
Calls of active or inactive are those of the source.

Legend:
MCF7 [1] = assay: Antitumor activity against human MCF7 cells xenografted in BALB/c mouse assessed as reduction of ErbB3 phosphorylation in tumor tissue at 5 to 20 mg/kg, ip administered via gavage every other day for 14 days by immunohistochemistry analysis; format: functional, organism-based; conditions: dose 5-20 mg/kg, time 14.0 day
[2] = target: T1, Ubiquitin carboxyl-terminal hydrolase 8 (Homo sapiens) (UniProt P40818); assay: Inhibition of N-terminal His6-tagged USP8 catalytic domain (734 to 1110 residues) in HEK293T cell lysates up to 100 uM in presence of HA-Ub-VS probe by HA antibody based Western blotting assay; format: subcellular
T1 sequence (whole entry): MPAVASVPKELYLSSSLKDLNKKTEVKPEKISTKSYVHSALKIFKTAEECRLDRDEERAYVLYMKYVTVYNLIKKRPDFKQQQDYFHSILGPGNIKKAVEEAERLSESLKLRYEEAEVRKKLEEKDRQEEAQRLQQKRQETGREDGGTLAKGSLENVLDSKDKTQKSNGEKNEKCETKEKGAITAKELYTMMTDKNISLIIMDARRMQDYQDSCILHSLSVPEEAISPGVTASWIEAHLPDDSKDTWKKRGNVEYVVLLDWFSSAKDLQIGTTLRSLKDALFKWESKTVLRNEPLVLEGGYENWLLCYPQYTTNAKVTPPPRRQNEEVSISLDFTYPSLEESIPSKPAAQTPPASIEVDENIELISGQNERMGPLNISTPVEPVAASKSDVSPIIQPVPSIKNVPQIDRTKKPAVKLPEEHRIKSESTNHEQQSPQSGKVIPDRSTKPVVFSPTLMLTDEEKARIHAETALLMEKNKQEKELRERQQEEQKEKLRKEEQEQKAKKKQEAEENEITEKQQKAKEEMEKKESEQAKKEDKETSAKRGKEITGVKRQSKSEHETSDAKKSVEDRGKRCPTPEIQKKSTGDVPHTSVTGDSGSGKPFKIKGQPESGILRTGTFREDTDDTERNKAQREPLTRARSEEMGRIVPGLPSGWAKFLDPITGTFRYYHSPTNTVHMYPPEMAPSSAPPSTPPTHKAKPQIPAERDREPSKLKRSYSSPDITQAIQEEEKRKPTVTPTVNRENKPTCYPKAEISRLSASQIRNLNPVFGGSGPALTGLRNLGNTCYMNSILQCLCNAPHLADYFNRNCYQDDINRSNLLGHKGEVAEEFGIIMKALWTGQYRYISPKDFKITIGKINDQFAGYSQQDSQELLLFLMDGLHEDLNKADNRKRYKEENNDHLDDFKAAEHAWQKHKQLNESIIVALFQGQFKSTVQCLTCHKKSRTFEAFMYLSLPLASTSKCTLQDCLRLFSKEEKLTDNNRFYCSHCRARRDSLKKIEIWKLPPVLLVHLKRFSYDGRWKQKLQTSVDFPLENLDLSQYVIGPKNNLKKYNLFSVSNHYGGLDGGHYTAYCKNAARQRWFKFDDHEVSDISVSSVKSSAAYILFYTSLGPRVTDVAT

MCF7 [3] = assay: Induction of apoptosis in human MCF7 cells assessed as reduction in ErbB3 expression level up to 5 uM incubated for 24 hrs by Western blotting analysis; format: functional, cell-based

Cc1n[nH]c(C)c1Oc1c(O)cc(O)c2c(=O)cc(-c3ccc(N4CCN(c5ccccn5)CC4)cc3)oc12
active: Activity (MCF7 [1]) | inhibition [2] | Activity (MCF7 [3])
